We go through one substance from patent publication US11266715B2, “C3A receptor agonists for use against ischemic brain injury, stroke, traumatic brain injury, spinal cord injury and neurodegenerative disorders” (priority 2016, dated 2022).

The subject of assay [1] is adult mice with global cerebral ischemia. As to conditions: single intraventricular injection of C3a 30 min prior to training, assessed 24 h later; cited from earlier work.
For assay [2], the system named is WT mice subjected to photothrombotic stroke in the motor cortex. Put plainly: Infarct volume after photothrombotic stroke, intranasal treatment. As to conditions: intranasal C3a daily days 7-21 post-stroke vs PBS; P=0.429. It is filed as in vivo, mouse. How it is done: Cortical photothrombosis was induced using the Rose Bengal method (Lee et al., 2007; Watson et al., 1985) with some modifications. Anesthesia was induced with isoflurane (Forene®, Abbott) in air and oxygen (1:1) initially at 5% and reduced to 2.5% during the surgical procedure. Body temperature was monitored by a rectal probe and maintained at 37° C. using a homeothermic control unit (Harvard Apparatus). Anesthetized mice were placed in a stereotaxic frame, the skull was exposed through a midline scalp incision and Rose Bengal (200 μl, 10 mg/ml solution in sterile saline, Sigma) was injected intraperitoneally. […] Mice were provided with moist mashed food placed on the floor of the home cage and their weight was monitored daily for 7 days after surgery. […]
Purified human C3a peptide (Complement Technologies) was diluted in sterile phosphate buffered saline (PBS) to a concentration of 200 nM and a total of 20 μl (10 μl/nostril; corresponding to approximately 1.13 μg/kg body weight) of peptide solution or PBS was given intranasally to awake, hand-restrained mice held in a supine position. […] For the assessment of potential systemic anaphylactic response due to intranasal C3a inoculation, body temperature was monitored using a rectal temperature probe (Harvard Apparatus) inserted approximately 4 mm into the rectum of awake mice restrained by the scruff. […]

For assay [3] the test system is unchanged. Description: Grid walking task after photothrombotic stroke. In kind it is in vivo, mouse. The procedure:
Cortical photothrombosis was induced using the Rose Bengal method (Lee et al., 2007; Watson et al., 1985) with some modifications. Anesthesia was induced with isoflurane (Forene®, Abbott) in air and oxygen (1:1) initially at 5% and reduced to 2.5% during the surgical procedure. Body temperature was monitored by a rectal probe and maintained at 37° C. using a homeothermic control unit (Harvard Apparatus). Anesthetized mice were placed in a stereotaxic frame, the skull was exposed through a midline scalp incision and Rose Bengal (200 μl, 10 mg/ml solution in sterile saline, Sigma) was injected intraperitoneally. After 5 min, the skull and underlying brain tissue were illuminated for 12 min by a 2 mm diameter cold laser beam (50 mW, 561 nm; Cobolt AB) positioned at AP +0.5 mm and ML −2.7 mm relative to Bregma, targeting the border between left primary somatosensory and motor cortex (Porritt et al., 2012). For intervention experiments targeting motor cortex, stroke was induced as above with the following modifications: Transcranial illumination lasting 15 min was delivered using cold light source (LQ1600, Fiberoptic-Heim AG) equipped with 2 mm wide fiber optic probe and directed to AP +0 and ML −1.5 relative to Bregma. After illumination, the scalp was sutured and mice were placed in a warm cage for 45 min to recover from anesthesia prior to being returned to the home cage. Mice were provided with moist mashed food placed on the floor of the home cage and their weight was monitored daily for 7 days after surgery. There were no significant differences in body weight, body temperature (36.5±0.5° C.), duration of surgery, or post-stroke mortality between cohorts. Each cohort contained an even distribution of mice from the matched strains or treatment groups.
Purified human C3a peptide (Complement Technologies) was diluted in sterile phosphate buffered saline (PBS) to a concentration of 200 nM and a total of 20 μl (10 μl/nostril; corresponding to approximately 1.13 μg/kg body weight) of peptide solution or PBS was given intranasally to awake, hand-restrained mice held in a supine position. Solutions were administered through a pipette tip, drop-wise in 5 μl portions divided by 1 min intervals to allow for absorption. C3a or PBS was given every 24 hours on days 7 to 21 post-stroke for the short-term study or on days 7 to 28 post-stroke for the long-term study. Mice were assigned to C3a or PBS treatment using randomization stratified by body weight to avoid potential confounding effects of body weight on behavioural performance. The investigators carrying out behavioural studies and analysing data were blinded to treatment group. For the assessment of potential systemic anaphylactic response due to intranasal C3a inoculation, body temperature was monitored using a rectal temperature probe (Harvard Apparatus) inserted approximately 4 mm into the rectum of awake mice restrained by the scruff. Baseline temperature was taken before intranasal administration and 5, 15, 30, 45 and 75 min after C3a or PBS administration.
Functional impairment of mice treated intranasally with C3a or vehicle was assessed using a modified cylinder test and a grid walking task to closely evaluate forepaw function. Mice were tested once on each task one week before stroke induction to establish baseline performance. Next, they were tested on days 7, 14 and 21 (short-term study) or days 7, 14, 28, 42 and 56 (long-term study) post-stroke. […]

As to “C3a: Purified human C3a peptide (Complement Technologies), C3a receptor agonist, amino acid sequence SEQ ID NO: 1”, in assay [1], the “amnesia induced by global cerebral ischemia” value is listed as “ameliorate amnesia”. In assay [2], the infarct volume entry is recorded as “no effect on infarct volume”. Further, the “right foot faults vs PBS-treated mice at days 14 and 56 post-stroke” value in assay [3] (long-term study, C3a days 7-28, P=0.0097 and P=0.047, Mann-Whitney U test) was “significantly fewer right foot faults”. Besides, the “grid walking performance day 56 vs pre-stroke baseline” value in assay [3] (long-term study, Dunn's test P=0.103) is listed as “did not differ from pre-stroke baseline levels”. The “foot faults day 14 vs day 7 post-stroke (first week of treatment)” value in assay [3] (long-term study, P=0.041 Dunn's test, P=0.039 Wilcoxon test) is listed as “significant reduction in foot faults”. Also, the “right paw foot faults, days 14 and 21 vs day 7” value in assay [3] (short-term study, C3a days 7-21, P=0.0545 and P=0.0839, Dunnett's test) was “tendency toward reduced number of right paw foot faults”. Besides, the “grid walking performance vs baseline at all time points after stroke” value in assay [3] (short-term study, P<0.001, both groups) is “significant impairment with respect to the baseline performance”.
